# Experimental data from patent publication US8778886B2, “Methods of making and using a cell penetrating peptide for enhanced delivery of nucleic acids, proteins, drugs, and adenovirus to tissues and cells, and compositions and kits” (Tufts University, priority 2007, dated 2014).
# Key:
# [1] = test system: human lung carcinoma epithelial cells (A549); experiment: POD-GFP protein transduction in vitro, GFP-positive cells by FACS; assay type: cell-based; conditions: A549, 10 μg protein, 2 hours
# Experimental: To evaluate cellular penetration of POD fusion proteins, HER cells were seeded on Lab Tek-II chamber slides and incubated with 10 μg of POD-GFP or GFP for two hours. Following fixation, cells were visualized by light and fluorescence microscopy using an Olympus BX51 microscope with differential interference contrast (DIC) and the appropriate fluorescence filters. Images were captured using a Retiga 2000R FAST camera and QCapture Pro 5.0 (QImaging, British Columbia, Canada). To quantitate protein uptake, 0.2×10^6 of either HER or A549 cells were incubated with 10 μg POD-GFP or GFP for 2 hours. Cells were washed with PBS, pelleted and resuspended in PBS for FACS analysis. Cell membrane integrity was evaluated by measuring the percentage of Propidium Iodide (1 μM) positive cells in the presence of fusion protein. FACS analysis of protein uptake and toxicity was performed using a FACSCAlibur (Becton Dickinson, Franklin. Lakes, N.J.) and results analyzed using CellQuest Pro (Becton Dickinson). 10,000 events were counted for each analysis, which was performed in triplicate and repeated at least once. […]
# [2] = test system: HER cells; experiment: POD-GFP protein transduction in vitro, GFP-positive cells by FACS and localization; assay type: cell-based, human; conditions: for GFP-positive cells: HER, 10 μg protein, 2 hours
# Experimental: (§1) To evaluate cellular penetration of POD fusion proteins, HER cells were seeded on Lab Tek-II chamber slides and incubated with 10 μg of POD-GFP or GFP for two hours. Following fixation, cells were visualized by light and fluorescence microscopy using an Olympus BX51 microscope with differential interference contrast (DIC) and the appropriate fluorescence filters. Images were captured using a Retiga 2000R FAST camera and QCapture Pro 5.0 (QImaging, British Columbia, Canada). To quantitate protein uptake, 0.2×10^6 of either HER or A549 cells were incubated with 10 μg POD-GFP or GFP for 2 hours. Cells were washed with PBS, pelleted and resuspended in PBS for FACS analysis. Cell membrane integrity was evaluated by measuring the percentage of Propidium Iodide (1 μM) positive cells in the presence of fusion protein. FACS analysis of protein uptake and toxicity was performed using a FACSCAlibur (Becton Dickinson, Franklin. Lakes, N.J.) and results analyzed using CellQuest Pro (Becton Dickinson). 10,000 events were counted for each analysis, which was performed in triplicate and repeated at least once.
# HER and A549 cells were treated as above for subsequent addition of LysoTracker, ER Tracker (Molecular Probes, Carlsbad, Calif.), or DAPI, and were incubated for one hour. These reagents were removed and cells were fixed with formalin for imaging.
# To determine the transduction capabilities of POD-GFP in vitro, each of approximately 0.2×10^6 human lung carcinoma epithelial cells (A549) or HER cells were incubated with 10 μg of each of purified recombinant POD-GFP or control GFP protein for 2 hours and the number of GFP-positive cells were counted by FACS. […] Similarly, 34.2±3.4% and 1.8±0.4%, respectively, of HER cells were GFP-positive when incubated with POD-GFP or GFP, respectively (FIG. 9 panel A).
# In contrast to endogenous gene expression, POD-GFP in the Example herein appeared in the cytoplasm of HER cells in a punctate pattern (FIG. 9 panel B), similar to observations in examples above with L-POD peptide and similar to that of an endocytic mechanism of uptake.
# [3] = test system: HER cells; experiment: Toxicity during protein transduction, propidium iodide uptake; assay type: cell-based, human; conditions: HER cells incubated with protein
# Experimental: as §1
# Extent of toxicity to cells during protein transduction was measured by uptake of propidium iodide (PI).
# [4] = test system: human embryonic retinoblast (HER) cells; experiment: Localization of de novo synthesized POD-GFP after plasmid transfection; assay type: cell-based; conditions: transfection with pPODGFPHis or pGFPHis
# Experimental: Human embryonic retinoblast (HER) cells were cultured using previously described methods [Fallaux F J et al. 1996 Hum. Gene Ther. 7: 215-222]. Carcinoma human alveolar basal epithelial cells (A549, American Type Culture Collection, Manassas, Va.) were grown to 70-80% confluence in DMEM media supplemented with 10% fetal bovine serum (FBS). All cell culture procedures were performed in DMEM supplemented with 2% FBS. Transfection of plasmids was carried out using 2:1 μL Lipofectamine: μg plasmid in Opti-MEM media. Forty-eight hours post-transfection, the cells were fixed and stained with DAPI, 4′,6-diamidino-2-phenylindole.
# Transfection of human embryonic retinoblast (HER) cells [Fallaux F J et al. 1996 Hum. […] Furthermore, POD-GFP appeared to concentrate in sub nuclear compartments (FIG. 7 panel B, arrowheads).
# [5] = test system: retina; experiment: Subretinal / intravitreal injection of POD-GFP protein in vivo; design: species or system C57BL/6J mice
# Experimental: (§2) Subretinal and intravitreal injections of the fusion proteins were performed using techniques described in Cashman et al. [2006 Invest Opthalmol Vis Sci 47:3496-3504]. Briefly, 8.5 μg of POD-GFP or 6.6 μg of GFP protein was injected into the subretinal or intravitreal space respectively, of 6-8 week old C57BL/6J mice. Four independent injections were performed and yielded nearly identical results. Six hours post-injection, mice were sacrificed by CO2 inhalation and cervical dislocation. For topical delivery of the POD-GFPHis or GFP-His, C57BL/6J mice were anesthetized with xylazine/ketamine and 2 μl containing 40 μg of protein were dropped onto the […] surface. Forty-five minutes following administration, mice were sacrificed as above and eyes enucleated, washed twice in PBS, and fixed overnight in 4% paraformaldehyde. Eyes were embedded in Optimal Cutting Temperature Compound (Sakura Finetek, Torrance, Calif.) and 14 μm sections were collected using a Microm 550 cryostat.
# To determine the transduction properties of POD-GFP […] an amount of 8.5 μg of each of purified POD-GFP or control GFP protein was injected into the subretinal space, i.e., between the retinal pigment epithelium (RPE) and photoreceptors, of 6 week-old male C57BL61J mice. Eyes were harvested after 6 hours and frozen sections were examined by fluorescence microscopy.
# Purified POD-GFP, 6.6 μg, or that amount of control GFP protein was injected into the intravitreal space, i.e. between the lens and neural retina of 6 week-old male C57BL6/J mice, and eyes were harvested after 6 hours and frozen sections examined by fluorescence microscopy. […] Unlike with subretinal injection, no POD-GFP signal was detectable in the outer nuclear layer or RPE beyond that of background auto-fluorescence and the overall number of GFP-positive cells was less than that achieved by subretinal injection.
# [6] = test system: cornea; experiment: Topical application of POD-GFP to cornea in vivo; design: species or system C57BL6/J mouse; conditions: 40 μg, 45 minutes
# Experimental: as §2, with “Eyes were embedded in Optimal Cutting Temperature Compound (Sakura Finetek, Torrance, Calif.) and 14 μm sections were collected using a Microm 550 cryostat.” left out
# To further examine localization of POD-GFP, anterior ocular tissues were dissected and the corneas were flat mounted or cross-sectioned and re-examined by fluorescence microscopy. […] In contrast, GFP-fluorescence was readily detected on both flat mounts and cross sections of corneas from mice that received topical application of POD-GFP (FIG. 12 panel B). […] No GFP-signal was detected in corneal cross-sections prepared from mice that received topical application of control GFP.
# [7] = test system: skin; experiment: Topical application of POD-GFP to shaved skin in vivo; design: species or system C57BL6/J mice; conditions: 40 μg; for GFP-fluorescence in skin: 24 hours
# Experimental: Adult mice were anesthetized as described above and the abdomen shaved to reveal a 2.25 cm^2 area of skin. A dose of 40 μg of protein was applied to the skin for 24 hours. Upon completion of the treatment, animals were sacrificed and the treated skin dissected and fixed overnight in 4% paraformaldehyde and transverse sections were obtained as described herein.
# To extend these observations to other organ systems, the potential of transdermal delivery of POD-fusion protein was examined. POD-GFP (40 μg) or control OFF was topically applied to shaved skin of adult C57BL6/J mice. Animals were sacrificed 24 hours later and frozen sections of the treated region were examined by fluorescence microscopy.
# [8] = test system: HER cells; experiment: C-POD delivery of siRNA, silencing of GFP expression; assay type: cell-based, human; conditions: pEGFP delivered by C-POD, no siRNA
# Experimental: pCAGRFP was compacted with C-POD at a ratio of 400 peptide/plasmid molecules. Briefly, 2 μg of DNA and the appropriate concentration of peptide were each suspended in 15 μL of either 100 μM sodium phosphate or 5% dextrose buffer. The peptide and DNA solutions were mixed and incubated for 30 minutes at room temperature prior to addition to HER cells. After 48 hours, cells were resuspended in PBS for FACS analysis. For electron microscopy, peptide/DNA complexes were prepared as above. Particles were bound to glow-discharged copper grids, stained with urinyl acetate, and visualized on a CMIO Transmission Electron Microscope (Philips) using Digital Micrograph software (Gatan, Inc). C-POD was used to compact both pd2-EGFP-NI and GFP Duplex I at concentrations of 450 particles/DNA molecule and 25 particles/duplex molecule, respectively, in 100 mM sodium phosphate buffer using the same procedures described above. Compacted pd2-EGFP-NI DNA, 2 μg, and 70 pmoles of GFP Duplex I diluted in DMEM+2% FBS were added simultaneously to HER cells for 4 hours. Growing medium was then added to cells and the incubation continued for 44 additional hours. […] The amount of fluorescence resulting from the Qdot-peptide complex was determined using a fluorometer and an equivalent amount of unbound Strep-Qdot was added separately as control. […] Uptake of Qdots was determined by fluorescent microscopy as described above. […]
# [9] = test system: E. coli; experiment: Microbicidal activity, colony count after plating; assay type: cell-based; conditions: 2 hours at 37° C., plating on LB agar
# Experimental: Lissamine conjugated POD (L-POD) and either heparan sulfate or chondroitan sulfate were incubated together at each of molar ratios of 1:3.33, 1:6.67, and 1:8 in water for 30 minutes at room temperature. The complex was diluted in DMEM+2% FBS and added to 0.2×]06 HER cells for 5 minutes at 37° C. Following incubation, cells were trypsinized and suspended in PBS for FACS analysis as described above. To measure microbicidal activity of C-POD, XL-1 Blue cells (Stratagene, La Jolla, Calif.) were grown to mid logarithmic phase (OD600=0.600) and washed twice in a solution of 10 mM Tris, pH 7.4 and 5 mM Glucose. The cells were resuspended in 10 mL of the same solution and […] of the suspension was incubated with C-POD in a final volume of 50 μL. The peptide/bacteria cell solution was rocked for 2 hours at 37° C. The peptide-treated bacteria was diluted 1:4500 with LB broth, plated on agar, and grown overnight at 37° C. The following day, the bacterial colonies on each plate were counted to quantify peptide-related reduction in growth.
# Since endophthalmitis, an infection within the eye, is regularly a complicating factor in drug delivery to ocular tissues [Ho J et al. 2007 Int Opthalmol Clin 47: 199-208], C-POD was examined for potential microbicidal activities. E. coli cells grown to mid-log phase were incubated with either H20 only or C-POD suspended in H20 at concentrations ranging from 0.03 μM to 60 μM, and cell number was determined by plating samples on LB agar. […] Greater concentrations of C-POD completely eliminated bacterial growth.
Substance,GFP-positive cells [1] [%],GFP-positive cells [2] [%],PI-positive cells [3] [%],localization of expressed protein [4],"detection in retina by fluorescence microscopy ([5]; intravitreal, 6.6 μg, 6 hours)","detection in retina by fluorescence microscopy ([5]; subretinal, 8.5 μg, 6 hours)",presence on outer surface of the eye [6],GFP-fluorescence in skin [7],GFP-positive cells [8] [%],concentration giving almost complete inhibition of bacterial growth [9] [µM],concentration giving significant inhibition of bacterial growth [9] [µM],cellular localization of exogenously added protein ([2]; HER cells),binding to lens capsule ([5]; intravitreal injection),"transduction of the ONL, share of the retinal surface ([5]; subretinal, 8.5 μg, 6 hours)",duration of binding to mouse skin [7]
GFP: His-tagged GFP control protein [reference compound],1.4±0.4,1.8±0.4,3.2±2.7,relatively diffuse cytoplasmic and nuclear localization,not detected in retinal cells above background auto-fluorescence,barely discernible above background auto-fluorescence,washed away,Only minimal GFP-fluorescence,,,,,,,
CGGG(ARKKAAKA)4 (CGGGARKKAAKAARKKAAKAARKKAAKAARKKAAKA; The peptide was designed and synthesized) [C-POD],,,,,,,,,49.13±2.23,24.0,0.30,,,,
POD-GFP: His-tagged POD-GFP fusion protein,35.3±0.9,34.2±3.4,2.8±3.8,relatively weak cytoplasmic and intense nuclear localization,readily detected in ganglion cells,abundantly present in the outer nuclear layer,detected on most of the ocular surface,significantly GFP-positive,,,,colocalize in part with Lysotracker,very strong affinity,up to 40%,at least 24 hours
